# In patent US20240132519A1, “NRF2-ACTIVATING COMPOUND” (SENJU PHARMACEUTICAL CO., LTD., priority 2020, published 2024):
# Marks after values point to notes of the source that are not given here.
# Columns and labels:
# [1] = target: binding between NRF2 and KEAP1 (Homo sapiens (Human), UniProt Q14145); assay: Binding assay: inhibition of binding between NRF2 and KEAP1 by BRET (NanoLuc-NRF2 and KEAP1-HaloTag cell lysates); conditions: Test Example 3; separated diastereomers; mean, N=2
# Method: The inhibitory activity of each compound on the binding between NRF2 and KEAP1 was measured by bioluminescence resonance energy transfer (BRET) assay. A plasmid having human NRF2 (Original Clone ID: ha01449s1) sequence fused with NanoLuc (19 kDa, Promega) at the N-terminal was transduced into HCE-T cells (immortalized human corneal epithelial cells) using FuGENE HD (Promega). 48 hours after transduction, the cell lysate was collected and used as an NRF2-expressing cell lysate. A plasmid having human KEAP1 (Original Clone ID: cs00328) sequence fused with HaloTag (33 kDa, Promega) at the C-terminal was transduced into HCE-T cells using FuGENE HD (Promega). After 24 hours, HaloTag Nano BRET 618 Ligand (Promega) was added to the medium. The cell lysate cultured for 24 hours after the addition was used as a KEAP1-expressing cell lysate.
# The NRF2-expressing cell lysate and the KEAP1-expressing cell lysate were adjusted so that the luminescence and fluorescence intensities per well were constant. Tables 1 and 2 show the formulation of each reaction solution.
# Each test substance at a concentration 100 times higher than the test concentration was dissolved in dimethylsulfoxide for adjustment. 49 μL of KEAP1 solution was added to a 96-well polystyrene microplate (FALCON) to which 1 μL of each test substance solution was added, followed by incubation for 15 minutes. Then, 50 μL of NRF2 solution was added to the above solution, followed by incubation for 1 hour. To measure the binding between NRF2 and KEAP1, NanoBRET Nano-Glo Substrate (Promega) diluted with Opti-Mem (Thermo Fisher Scientific) was added, followed by shaking for 30 seconds. Then, luminescence and fluorescence were measured using the GloMax Discover System (Promega). A 495-nm short pass filter and a 600-nm long pass filter were respectively used to measure donor and acceptor emission values. A value obtained by dividing the acceptor emission value by the donor emission value was regarded as BRET value. A BRET value when the compound was not added, and a BRET value when the KEAP1 solution was not added were respectively used as binding rates of 100% and 0%, and the binding rate when the compound was added was calculated. Further, using this binding rate, the 50% binding inhibitory activity concentration (IC50) was calculated from the following formula. The test was performed at N=2.
# IC50(M)=10^(LOG(A/B)×(50−C)/(D−C)+LOG(B)) • A: higher concentration out of 2 close concentrations across the inhibition rate of 50% • B: lower concentration out of 2 close concentrations across the inhibition rate of 50% • C: inhibition rate at B • D: inhibition rate at A
# (§1) Compounds A1/A2, compounds B1/B2, compounds C1/C2, and compounds D1/D2 were used as test substances. Binding assay and reporter assay were performed as in Test Example 1-1 and Test Example 1-2.
# NRF2 = assay: Reporter assay: NRF2 activating action in HCE-T/ARE-Luc cells (ARE luciferase reporter gene assay); assay type: cell-based, human; conditions: Test Example 3; separated diastereomers; mean, N=3
# Method: The NRF2 activating action of the compounds on cells was measured by a reporter gene assay. pGL4.37[luc2P/ARE/Hygro] (Promega) was introduced into HCE-T cells using FuGENE HD. Cells that acquired drug resistance as a result of transduction were screened by culture in the presence of 50 μg/mL hygromycin, and a clone strain, HCE-T/ARE-Luc cells, was established.
# HCE-T/ARE-Luc cells were cultured using DMEM/F12 medium containing 10 ng/mL hEGF, 5 μg/mL insulin, 5% FBS, and 40 μg/mL gentamicin. As the assay medium, a medium with the same composition as that for the culture was prepared using phenol red-free DMEM/F12 medium.
# HCE-T/ARE-Luc cells were seeded in a 96-well polystyrene microplate (FALCON) with 10000 cells per well. The cells were incubated in a CO2 incubator at 37° C. for 16 hours to allow for cell adhesion. The test substance was dissolved in dimethylsulfoxide to prepare a solution at a concentration 1000 times higher than the test concentration. The cells were treated with the test substance diluted 1000-fold with the assay medium and cultured for 24 hours. When measuring the activity of the reporter, the medium containing the test substance was removed, and then a new medium and a substrate of ONE-GloEX Luciferase Assay System (Promega) were added. The plate was shaken for 1 minute and then allowed to stand at ordinary temperature for 10 minutes, and luminescence was detected using the GloMax Discover System (Promega).
# The test was performed at N=3, and the 50% activation concentration of each test substance was calculated by creating a calibration curve between two concentrations across the luminescence incensity of 50%.
# as §1
# HCE-T cells = assay: Cell viability test in HCE-T cells (Cell Counting Kit-8, 24 hours); assay type: cell-based, human; conditions: mean, N=3
# Method: To confirm cell viability, HCE-T cells were seeded at 10000 cells per well in a 96-well polystyrene microplate (IWAKI). The cells were cultured in a CO2 incubator at 37° C. for 16 hours to allow the cells to adhere. The culture of the HCE-T cells was performed using DMEM/F12 medium containing 10 ng/mL hEGF, 5 μg/mL insulin, 5% FBS, and 40 μg/mL gentamicin.
# Each test substance was dissolved in dimethyl sulfoxide to prepare a stock solution with a concentration that is 1000 times the test concentration. DMEM/F12 medium containing 40 μg/mL gentamicin was used as assay medium. The medium containing serum and growth factors was removed and replaced with assay medium in which each test substance was appropriately serially diluted, and the cell viability was measured after 24 hours. Cell Counting Kit-8 (Dojindo Laboratories) was added to each well in an amount that is 1/10 the amount of the medium. Color reaction was performed for 1 hour in a CO2 incubator, and absorbance at 450 nm was measured with a microplate reader (Corona Electric Co., Ltd.). […] The test was performed at N=3.
# Sequence of binding between NRF2 and KEAP1 (Q14145 whole entry, the tested form may be a part): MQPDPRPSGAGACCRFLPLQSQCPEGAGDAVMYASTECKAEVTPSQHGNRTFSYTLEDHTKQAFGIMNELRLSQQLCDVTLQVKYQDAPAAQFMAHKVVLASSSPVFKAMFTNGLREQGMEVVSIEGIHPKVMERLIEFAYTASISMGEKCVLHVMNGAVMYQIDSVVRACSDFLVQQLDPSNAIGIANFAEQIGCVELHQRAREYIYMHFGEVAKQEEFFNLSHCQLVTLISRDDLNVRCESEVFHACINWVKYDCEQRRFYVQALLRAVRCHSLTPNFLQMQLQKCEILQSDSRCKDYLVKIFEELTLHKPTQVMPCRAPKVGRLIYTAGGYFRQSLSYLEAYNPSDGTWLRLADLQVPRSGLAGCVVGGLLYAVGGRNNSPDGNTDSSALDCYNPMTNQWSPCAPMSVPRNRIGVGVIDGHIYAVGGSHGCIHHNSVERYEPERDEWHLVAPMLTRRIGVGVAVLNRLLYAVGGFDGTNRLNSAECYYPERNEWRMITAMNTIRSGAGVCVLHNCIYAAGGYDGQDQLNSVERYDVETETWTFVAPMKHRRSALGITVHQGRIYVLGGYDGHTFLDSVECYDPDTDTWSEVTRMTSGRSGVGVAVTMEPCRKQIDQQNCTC
IC50 [1] [nM],EC50 (NRF2) [nM],SMILES,Cytotoxic concentration (concentration that does not affect cell viability) (HCE-T cells)
0.17,0.67,"CC[C@@H]1CN(Cc2cc(C(c3ccc(C(C)=O)s3)C(C)(C)C(=O)O)ccc2C)S(=O)(=O)c2cnccc2O1 (single isomer, unassigned) [Compound D1]",34.1 µM
5.17,513,"CC[C@@H]1CN(Cc2cc(C(c3ccc(C(C)=O)s3)C(C)(C)C(=O)O)ccc2C)S(=O)(=O)c2cnccc2O1 (single isomer, unassigned) [Compound D2]",14.7* uM
0.14,5.82,"CC[C@@H]1CN(Cc2cc([C@@H](c3ccc(C(C)=O)s3)[C@@H](C)C(=O)O)ccc2C)S(=O)(=O)c2ccccc2O1 [Compound A1, (2R,3S)-3-(5-acetylthiophen-2-yl)-3-(3-{[(R)-4-ethyl-1,1-dioxide-3,4-dihydro-2H-benzo[b][1,4,5]oxathiazepin-2-yl]methyl}-4-methylphenyl)-2-methylpropanoic acid]",111.4 µM
0.71,317,CC[C@@H]1CN(Cc2cc(C(c3ccc(C(C)=O)s3)[C@H](C)C(=O)O)ccc2C)S(=O)(=O)c2ccccc2O1 (stereo partly drawn) [Compound A2],65.3** uM
0.17,0.98,"CC[C@@H]1CN(Cc2cc([C@@H](c3ccc(C(C)=O)s3)[C@@H](C)C(=O)O)ccc2C)S(=O)(=O)c2cnccc2O1 [Compound B1, (2R,3S)-3-(5-acetylthiophen-2-yl)-3-(3-{[(R)-4-ethyl-1,1-dioxide-3,4-dihydro-2H-pyrido[4,3-b][1,4,5]oxathiazepin-2-yl]methyl}-4-methylphenyl)-2-methylpropanoic acid]",345.4 µM
1.01,90.1,CC[C@@H]1CN(Cc2cc(C(c3ccc(C(C)=O)s3)[C@H](C)C(=O)O)ccc2C)S(=O)(=O)c2cnccc2O1 (stereo partly drawn) [Compound B2],181.1* uM
0.15,3.12,"CC[C@@H]1CN(Cc2cc([C@@H](c3cc(OC)c(C(C)=O)s3)[C@@H](C)C(=O)O)ccc2C)S(=O)(=O)c2cnccc2O1 [Compound C1, (2R,3S)-3-(5-acetyl-4-methoxythiophen-2-yl)-3-(3-{[(R)-4-ethyl-1,1-dioxide-3,4-dihydro-2H-pyrido[4,3-b][1,4,5]oxathiazepin-2-yl]methyl}-4-methylphenyl)-2-methylpropanoic acid]",53.5 µM
0.89,777,CC[C@@H]1CN(Cc2cc(C(c3cc(OC)c(C(C)=O)s3)[C@H](C)C(=O)O)ccc2C)S(=O)(=O)c2cnccc2O1 (stereo partly drawn) [Compound C2],30.7* uM
